Source: patent publication US20260207758A1, “NA[…]-BASED CONJUGATE FOR […] INTO B CELL AND T CELL AND USES THEREOF” (priority 2022, published 2026)

Assays:
Assay type in all cases: cell-based
[1] = test system: T cells (primary CD8+ cytotoxic T cells); assay: Binding of Cy5.5-labeled targeting peptide, flow cytometry; details: Cy5.5-labeled peptide
Procedure: (§1) A B cell/T cell targeting peptide (BTBP, SEQ ID NO: 17) was labeled with Cy5.5, and B cells (primary CD19+ B cells, PCS-800-018, ATCC) and T cells (primary CD8+ cytotoxic T cells, PCS-800-017, ATCC) were treated with 100 μM of the peptide for 1 hour. Then, the cells were fixed with 4% neutral formalin solution and measured using a confocal scanning microscope (LSM980 with Airyscan2, Carl Zeiss). […] Therefore, it was confirmed that BTBP effectively targeted both the B cells and the T cells.
(§2) In addition, the cells were washed three times with DPBS containing 5% FBS, and cells bound with Cy5.5-labeled BTBP were analyzed using flow cytometry (FIG. 7). As a result, it could be confirmed that the peptide of SEQ ID NO: 17 bound to B cells and T cells.

[2] = test system: B cells (primary CD19+ B cells); assay: as above; details: Cy5.5-labeled peptide
Procedure: as §1, §2

[3] = test system: T cells (primary CD8+ cytotoxic T cells); assay: Binding of Cy5.5-labeled targeting peptide, confocal microscopy; details: 100 μM Cy5.5-labeled peptide, 1 hour
Procedure: as §1

[4] = test system: B cells (primary CD19+ B cells); assay: as above; details: 100 μM Cy5.5-labeled peptide, 1 hour
Procedure: as §1

Sequence: HTHGAARVPDHR [BTBP]
- binding to cells by flow cytometry [1]: bound
- binding to cells by flow cytometry [2]: bound
- fluorescence intensity in cell membranes [3]: significantly increased
- fluorescence intensity in cell membranes [4]: significantly increased
